In patent US12382954B2, “Pinocembrin dihydrochalcone and compositions thereof and their use as pesticides” (METABOLIC INSIGHTS LTD., priority 2019, dated 2025):

Assays:
[1] = test system: Fusarium oxysporum; test: In planta validation, cucumber seedlings infected with Fusarium oxysporum; type: in vivo; conditions: 3 weeks after infection, 3 independent experiments
[2] = test system: Rhizoctonia solani; type: cell-based; conditions: 50 ppm
[3] = test system: Botrytis cinerea; type: cell-based; conditions: 50 ppm
[4] = test system: Puccinia triticina; type: cell-based; conditions: 50 ppm
[5] = test system: Pectobacterium carotovorum; type: cell-based; conditions: 50 ppm
[6] = test system: Puccinia sorghi; type: cell-based; conditions: 50 ppm
[7] = test system: Fusarium oxysporum; type: cell-based; conditions: 50 ppm
[8] = test system: Pseudoperonospora cubensis; type: cell-based; conditions: 50 ppm
[9] = test system: Phytophthora infestans; type: cell-based; conditions: 50 ppm, tomato leaf discs, % of maximal value (grade x repeats/12)
[10] = test system: Spodoptera litoralis; test: In-vitro screening matrix, Spodoptera litoralis; conditions: 50 ppm
[11] = test system: Phytophthora infestans; type: in vivo; conditions: tomato detached leaf experiment, 500-1000 ppm, spray on leaves, 6 days after infection
[12] = test system: Xanthomonas campestris; type: cell-based; conditions: 50 ppm
[13] = test system: Pythium aphanidermatum; type: cell-based; conditions: 50 ppm
[14] = test system: Sclerotinia sclerotiorum; type: cell-based; conditions: 50 ppm
[15] = test system: Mizus Persicae; test: In-vitro screening matrix, Mizus Persicae; conditions: 50 ppm
[16] = test system: Pseudomonas syringae; type: cell-based; conditions: 50 ppm
[17] = test system: Pythium aphanidermatum; test: In planta validation, cucumber seedlings infected with Pythium aphanidermatum (soil drench); type: in vivo; conditions: 4 days after infection, 150 ppm-500 ppm, 2 independent experiments

SMILES: O=C(CCc1ccccc1)c1c(O)cc(O)cc1O [Pinocembrin dihydrochalcone, 3-phenyl-1-(2,4,6-trihydroxyphenyl)propan-1-one]
- range of efficacy in preventing and controlling the Fusarium diseases ([1]; 100 ppm and 200 ppm): 66-100%
- range of efficacy in preventing and controlling the Fusarium diseases ([1]; 300 ppm): 88-100%
- Relative Activity value (%) [2]: 6%
- Relative Activity value (%) [3]: 0%
- Relative Activity value (%) [4]: 19%
- Relative Activity value (%) [5]: 12%
- Relative Activity value (%) [6]: 0%
- Relative Activity value (%) [7]: 9%
- Relative Activity value (%) [8]: 50%
- Relative Activity value (%) [9]: 100%
- Relative Activity value (%) [10]: 0%
- control of Phytophthora infestans [11]: up to 100%
- Relative Activity value (%) [12]: 50%
- Relative Activity value (%) [13]: 100%
- Relative Activity value (%) [14]: 6%
- Relative Activity value (%) [15]: 0%
- Relative Activity value (%) [16]: 6%
- range of efficacy in preventing and controlling the Pythium disease [17]: up to 100%
